According to ChEMBL document CHEMBL1201862, “PubChem BioAssay data set” (2004):
Values joined by “and” are separate entries in the source; they are usually repeats but may differ in a detail not shown here. Identical values can stand only once. Active and inactive are the calls of the source.

Assays:
[1] = NIH-3T3 fibroblast cytotoxicity, dose response, cytotoxicity control, cell-based, fluorescence, Alamar Blue, secondary assay (AID 2327); assay type: functional;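 note: NIH-3T3 mouse fibroblasts cultured with fluconazole at 8 µg/mL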
[2] = test system: Streptococcus sp. 'group A'; test: Streptococcus pyogenes SK(-)GAS viability under kanamycin – luminescence, BacTiterGlo, confirmation, counter-screen for streptokinase expression inhibitor project, dose response (AID 1900); assay type: functional, organism-based
Streptokinase A = molecular target: T1, Streptokinase A (Streptococcus pyogenes serotype M1, UniProt P10520); test: viability-normalized secreted streptokinase activity reduction – plasminogen activation absorbance, OD405, dose response (AID 1914); assay type: functional, Streptococcus pyogenes M1 GAS;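 note: secreted streptokinase activity via plasminogen activation per viability signal from cell pellet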
T1 sequence (P10520 whole entry): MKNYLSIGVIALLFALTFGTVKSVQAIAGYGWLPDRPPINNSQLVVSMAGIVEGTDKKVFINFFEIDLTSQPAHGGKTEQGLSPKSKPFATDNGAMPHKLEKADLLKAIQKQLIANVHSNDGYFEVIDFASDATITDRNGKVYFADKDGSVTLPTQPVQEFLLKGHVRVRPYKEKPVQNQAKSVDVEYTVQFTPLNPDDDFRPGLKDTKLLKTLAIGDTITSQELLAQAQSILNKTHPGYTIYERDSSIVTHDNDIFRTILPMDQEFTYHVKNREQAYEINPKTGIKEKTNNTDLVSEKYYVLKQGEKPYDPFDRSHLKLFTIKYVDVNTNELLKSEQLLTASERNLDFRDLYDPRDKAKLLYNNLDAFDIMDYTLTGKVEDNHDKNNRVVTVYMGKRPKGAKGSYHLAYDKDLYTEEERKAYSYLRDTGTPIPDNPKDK

[3] = fluconazole-exposed Candida albicans growth modulators – fluorescence, retest, confirmation (AID 2467); assay type: functional, cell-based
[4] = molecular target: Heat shock protein HSP 90-alpha (Homo sapiens, UniProt P07900); assay type: functional, organism-based
[5] = molecular target: T2, Calpain-2 catalytic subunit (Sus scrofa, UniProt P43367); test: m-calpain protease blockers, concentration series – biochemical, fluorogenic peptide substrate, dose response (AID 1420); assay type: functional
T2 sequence (P43367 whole entry): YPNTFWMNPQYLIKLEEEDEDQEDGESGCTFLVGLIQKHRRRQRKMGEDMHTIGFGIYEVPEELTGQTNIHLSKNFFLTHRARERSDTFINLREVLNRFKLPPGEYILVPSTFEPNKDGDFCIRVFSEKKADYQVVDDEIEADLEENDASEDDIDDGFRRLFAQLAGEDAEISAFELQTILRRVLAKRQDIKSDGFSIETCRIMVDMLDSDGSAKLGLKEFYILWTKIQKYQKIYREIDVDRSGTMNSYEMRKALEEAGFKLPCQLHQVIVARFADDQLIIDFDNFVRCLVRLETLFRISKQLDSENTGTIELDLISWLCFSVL

[6] = NIH3T3 cell viability loss – ATP luminescence, mouse fibroblasts, counter-screen, dose response (AID 2010); assay type: functional, cell-based;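 note: cells exposed to compound for about 90 hours before reading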
Phospholipase A2 = Phospholipase A2 (Homo sapiens, UniProt P04054); assay type: functional;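 note: confirmatory dose-response counterscreen on phospholipase A2, testing hits that came from an ultra-high-throughput screen for ATG4B inhibitors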
Sequence of Phospholipase A2 (P04054 whole entry): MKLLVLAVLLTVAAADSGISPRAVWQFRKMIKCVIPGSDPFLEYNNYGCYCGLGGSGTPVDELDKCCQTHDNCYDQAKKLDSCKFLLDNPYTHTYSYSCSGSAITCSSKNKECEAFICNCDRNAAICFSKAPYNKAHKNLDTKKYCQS

[7] = molecular target: T3, Sentrin-specific protease 8 (Homo sapiens, UniProt Q96LD8); assay type: functional;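 note: luminescence read-out of SENP8 inhibition, dose-response confirmation following an ultra-high-throughput screen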
T3 sequence (Q96LD8 whole entry): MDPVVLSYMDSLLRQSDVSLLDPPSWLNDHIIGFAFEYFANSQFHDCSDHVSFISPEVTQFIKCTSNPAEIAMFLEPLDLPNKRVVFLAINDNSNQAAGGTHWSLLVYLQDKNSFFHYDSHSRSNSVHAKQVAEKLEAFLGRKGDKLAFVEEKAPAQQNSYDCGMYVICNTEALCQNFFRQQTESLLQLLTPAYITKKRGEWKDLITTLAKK

[8] = molecular target: T4, Histone-lysine N-methyltransferase NSD2 (Homo sapiens, UniProt O96028); assay type: biochemical
T4 sequence (O96028 whole entry): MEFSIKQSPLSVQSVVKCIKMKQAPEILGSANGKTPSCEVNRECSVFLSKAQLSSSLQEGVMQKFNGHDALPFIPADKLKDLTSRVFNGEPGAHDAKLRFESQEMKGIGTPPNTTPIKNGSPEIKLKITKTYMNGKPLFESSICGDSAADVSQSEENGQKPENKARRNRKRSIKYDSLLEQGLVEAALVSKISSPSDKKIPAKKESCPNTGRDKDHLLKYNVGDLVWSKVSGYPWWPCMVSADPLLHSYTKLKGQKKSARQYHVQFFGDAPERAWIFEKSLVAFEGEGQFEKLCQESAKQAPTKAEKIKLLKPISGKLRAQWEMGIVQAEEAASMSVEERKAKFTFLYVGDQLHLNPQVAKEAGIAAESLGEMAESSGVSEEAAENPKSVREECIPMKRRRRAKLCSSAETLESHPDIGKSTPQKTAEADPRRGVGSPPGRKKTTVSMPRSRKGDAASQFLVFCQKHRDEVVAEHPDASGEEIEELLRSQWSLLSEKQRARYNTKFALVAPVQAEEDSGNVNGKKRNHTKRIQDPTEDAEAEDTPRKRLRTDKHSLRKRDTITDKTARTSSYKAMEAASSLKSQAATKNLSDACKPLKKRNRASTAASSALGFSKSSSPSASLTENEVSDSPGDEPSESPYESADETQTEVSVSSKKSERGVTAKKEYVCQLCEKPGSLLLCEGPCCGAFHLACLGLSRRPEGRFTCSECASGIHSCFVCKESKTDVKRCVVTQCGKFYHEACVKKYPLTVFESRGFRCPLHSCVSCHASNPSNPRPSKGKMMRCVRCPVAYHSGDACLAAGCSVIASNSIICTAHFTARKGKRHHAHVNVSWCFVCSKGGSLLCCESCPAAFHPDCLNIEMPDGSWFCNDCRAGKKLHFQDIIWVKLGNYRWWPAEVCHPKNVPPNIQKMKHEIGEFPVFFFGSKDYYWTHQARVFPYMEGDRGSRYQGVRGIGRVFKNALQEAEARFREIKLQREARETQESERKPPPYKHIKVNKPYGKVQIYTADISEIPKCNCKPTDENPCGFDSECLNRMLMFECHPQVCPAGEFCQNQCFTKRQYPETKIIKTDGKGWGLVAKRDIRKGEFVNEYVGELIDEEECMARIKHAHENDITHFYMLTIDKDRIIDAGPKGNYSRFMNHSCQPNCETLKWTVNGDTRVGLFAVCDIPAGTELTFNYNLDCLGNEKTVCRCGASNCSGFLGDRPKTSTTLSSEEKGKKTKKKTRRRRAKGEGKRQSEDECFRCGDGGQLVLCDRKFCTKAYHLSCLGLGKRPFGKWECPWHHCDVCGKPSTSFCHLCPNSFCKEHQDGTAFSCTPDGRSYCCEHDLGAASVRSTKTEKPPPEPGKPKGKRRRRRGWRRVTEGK

SMILES | EC50 [1] | EC50 ([2]; Streptococcus sp. 'group A') | EC50 (Streptokinase A) | EC50 [3] | AC50 [4] | EC50 [2] | IC50 [5] | EC50 ([6]; NIH3T3) | EC50 ([6]; nih3t3) | IC50 (Phospholipase A2) | IC50 [7] | AC50 [8]
O=C(Nc1ccccc1Cl)/C(Cl)=C(\Cl)[S+]([O-])c1ccccc1 (stereo not drawn) | 3.5 µM (active) | 1.53 µM (active) | 331 nM (active) | > 38 µM (not active) | < 0.195 µM (active) |  |  |  |  |  |  | 
CCCCCCCCCCCCCCCCn1cc[n+](C)c1 | 149 µM (active) | 1.72 µM (active) | 5.97 µM (active) and > 150 µM (not active) | 1.74 µM (active) | 3.48 µM (active) | 1.97 µM (active) | 11.4 µM (not active) | 8.99 µM (active) | 8.81 µM (active) | 5.78 µM (active) |  | 
O=C(NC1(O)C(=O)c2ccccc2C1=O)c1ccccc1 |  |  |  |  |  |  |  |  |  |  | 4.39 µM (active) | 6.87 µM (active)
Cc1ccc(C)c(S(=O)(=O)/N=C2\C=C(NS(=O)(=O)c3ccccc3)C(=O)c3ccccc32)c1 |  |  |  |  |  |  |  |  |  |  |  | > 20 µM (inactive)
